The record followed here is US8889878B2, “Haloalky-substituted amides as insecticides and acaricides” (Bayer CropScience AG, priority 2009, dated 2014).

The test system of data set [1] is Boophilus microplus. Briefly: Boophilus microplus test (BOOPMI injection), Example 1. It is filed as in vivo. The conditions noted are these: application rate 20 μg/animal, injected into abdomen, after 7 days. The protocol: Boophilus microplus Test (BOOPMI Injection) • Solvent: dimethyl sulphoxide To prepare an active ingredient formulation, 10 mg of active ingredient are mixed with 0.5 ml of solvent and the concentrate is diluted with water to the desired concentration. The active ingredient solution was injected into the abdomen (Boophilus microplus), and the animals were transferred to dishes and stored in a climate-controlled room. The efficacy was assessed by the number of fertile eggs laid. After 7 days, the efficacy in % is determined. 100% means that no tick laid fertile eggs.

Data set [2] is described as follows: logP by HPLC on reverse-phase column (EEC Directive 79/831 Annex V.A8). It is filed as physicochemical. Particulars: for chromatographic logP: reverse-phase C18 HPLC column. The protocol:
The logP values reported in the above Tables and Preparation Examples were determined according to EEC Directive 79/831 Annex V.A8 by HPLC (High Performance Liquid Chromatography) on a reverse-phase column (C18). Temperature 43° C.

Data set [3] has as its system Boophilus microplus. The experiment in a line: Boophilus microplus test (BOOPMI injection), Example 11. It counts as in vivo. The conditions noted are these: application rate 20 μg/animal, injected into abdomen, after 7 days; for pest or weed control at 0.02 mg: Rhipicephalus microplus, 168 h, read-out: efficacy in % (fertile eggs laid). The procedure, abridged: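 Adult ticks injected in the abdomen with compound diluted in DMSO, then held in a climate-controlled room. Efficacy in % determined after 7 days from fertile eggs laid; 100% means no tick laid fertile eggs.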

In a further data set the test system is Lucilia cuprina larvae. The experiment in a line: Lucilia cuprina test (LUCICU), Example 3. It is filed as in vivo. Particulars: application rate 20 ppm, treated horsemeat, after 2 days. The protocol:
Lucilia cuprina Test (LUCICU) • Solvent: dimethyl sulphoxide To prepare an active ingredient formulation, 10 mg of active ingredient are mixed with 0.5 ml of dimethyl sulphoxide, and the concentrate is diluted with water to the desired concentration. Vessels containing horsemeat which has been treated with the active ingredient formulation of the desired concentration are populated with Lucilia cuprina larvae. After 2 days, the kill rate in % is determined. 100% means that all larvae were killed; 0% means that no larvae were killed.

In another data set the test system is Musca domestica adults. The experiment in a line: Musca domestica test (MUSCDO), Example 14. The conditions noted are these: application rate 100 ppm, treated sponge, after 2 days. It counts as in vivo. As for the experimental part: Musca domestica Test (MUSCDO) • Solvent: dimethyl sulphoxide To prepare an appropriate active ingredient formulation, 10 mg of active ingredient are mixed with 0.5 ml of dimethyl sulphoxide, and the concentrate is diluted with water to the desired concentration. Vessels containing a sponge which has been treated with the active ingredient formulation of the desired concentration are populated with Musca domestica adults. After 2 days, the kill rate in % is determined. 100% means that all flies were killed; 0% means that no flies were killed.

The test system of the next data set is Ctenocephalides felis. The experiment in a line: Ctenocephalides felis oral (CTECFE), Example 2. It counts as in vivo. The conditions noted are these: application rate 20 ppm in citrated cow's blood, after 2 days. As for the experimental part:
Ctenocephalides felis Oral ([…]) • Solvent: 1 part by weight of dimethyl sulphoxide For the purpose of preparing an active ingredient formulation, 10 mg of active ingredient are mixed with 0.5 ml of dimethyl sulphoxide. A portion of the concentrate was diluted with citrated cow's blood and the desired concentration was prepared. 20 unfed adult fleas (Ctenocephalides felis) are placed into a chamber sealed at the top and bottom with gauze. A metal cylinder with its lower end sealed with Parafilm is placed onto the chamber. The cylinder contains the blood-active ingredient preparation, which can be consumed by the fleas through the Parafilm membrane. After 2 days, the kill rate in % is determined. 100% means that all fleas were killed; 0% means that no fleas were killed.

Data set [4] has as its system red spider mite (Tetranychus urticae). Briefly: Tetranychus test, OP-resistant (TETRUR spray treatment), Example 8. It is filed as in vivo. Particulars: application rate 20 g/ha, common bean leaf discs sprayed, after 6 days. The procedure, abridged:
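Bean (Phaseolus vulgaris) leaf discs carrying all stages of OP-resistant Tetranychus urticae sprayed with compound in acetone/DMF with emulsifier, diluted in water to the test concentration. Mortality scored after 6 days as % efficacy (100% = all mites killed).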

In data set [5] the test system is mustard beetle (Phaedon cochleariae). The experiment in a line: Phaedon test (PHAECO spray treatment), Example 7. It counts as in vivo. Particulars: application rate 20 g/ha, china cabbage leaf discs sprayed, after 7 days. The procedure, abridged: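 Spray formulation (acetone/DMF with alkylaryl polyglycol ether, diluted in emulsifier-containing water) applied to Chinese cabbage leaf discs, which were dried and then stocked with mustard beetle larvae. Efficacy scored at 7 days as % larvae killed (100% all, 0% none).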

Data set [6] concerns green peach aphid (Myzus persicae). The experiment in a line: Myzus test (MYZUPE spray treatment), Example 17. Particulars: application rate 100 g/ha, china cabbage leaf discs sprayed, after 6 days. It counts as in vivo. The procedure, abridged:
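Chinese cabbage leaf discs infested with all aphid stages were sprayed with compound formulated in acetone/dimethylformamide plus alkylaryl polyglycol ether emulsifier, diluted in emulsifier-containing water. Mortality read after 6 days as % efficacy (100% all killed, 0% none killed).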

In data set [7] the test system is red spider mite (Tetranychus urticae). The experiment in a line: Tetranychus test; OP-resistant (TETRUR spray treatment), Example 18. It counts as in vivo. The conditions noted are these: Tetranychus urticae, foliar, 144 h, common bean leaf discs sprayed, after 6 days, read-out: efficacy in %; for pest or weed control at 100 g/ha: application rate 100 g/ha; for pest or weed control at 500 g/ha: application rate 500 g/ha. The protocol: Tetranychus Test; OP-Resistant (TETRUR Spray Treatment)
(§1) • Solvent: 78.0 parts by weight of acetone • 1.5 parts by weight of dimethylformamide • Emulsifier: 0.5 part by weight of alkylaryl polyglycol ether
To prepare an appropriate active ingredient formulation, 1 part by weight of active ingredient is mixed with the stated amounts of solvent and emulsifier, and the concentrate is diluted with emulsifier-containing water to the desired concentration. Leaf discs from the common bean (Phaseolus vulgaris) infested by all stages of the red spider mite (Tetranychus urticae) are sprayed with an active ingredient formulation of the desired concentration.
After 6 days, the efficacy in % is determined. 100% means that all spider mites were killed; 0% means that no spider mites were killed.

The subject of data set [8] is mustard beetle (Phaedon cochleariae). Briefly: Phaedon test (PHAECO spray treatment), Example 16. It is filed as in vivo. The conditions noted are these: Phaedon cochleariae, foliar, china cabbage leaf discs sprayed, after the desired time, read-out: efficacy in %; for pest or weed control at 100 g/ha: application rate 100 g/ha; for pest or weed control at 500 g/ha: application rate 500 g/ha. The protocol:
Phaedon Test (PHAECO Spray Treatment)
as §1
To prepare an appropriate active ingredient formulation, 1 part by weight of active ingredient is mixed with the stated amounts of solvent and emulsifier, and the concentrate is diluted with emulsifier-containing water to the desired concentration. […]
After the desired time, the efficacy in % is determined. 100% means that all beetle larvae were killed; 0% means that no beetle larvae were killed.

Data set [9] concerns armyworm (Spodoptera frugiperda). Briefly: Spodoptera frugiperda test (SPODFR spray treatment), Example 15. Particulars: Spodoptera frugiperda, foliar, 168 h, maize leaf discs sprayed, after 7 days, read-out: efficacy in %; for pest or weed control at 500 g/ha: application rate 500 g/ha; for pest or weed control at 100 g/ha: application rate 100 g/ha. It counts as in vivo. The procedure, abridged:
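Maize leaf discs sprayed with active ingredient in acetone/DMF with alkylaryl polyglycol ether emulsifier, diluted in water, then populated with caterpillars after drying. Efficacy in % after 7 days: 100% all caterpillars killed, 0% none.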

The mark [10] stands for this setting: pH 2.7, HPLC, C18 reverse phase, 43° C., acidic range pH 2.7, calibration with alkan-2-ones.

In general, chromatographic logP refers to a lipophilicity value derived from retention on a column. High values mean a more lipophilic compound, low ones a more hydrophilic compound. On to `O=C(/C=C/c1ccc(C(=O)NC2CC2)c(C(F)(F)F)c1)NC(c1cc(Cl)cc(C(F)(F)F)c1)C(F)(F)F` (stereo not shown) [Ia-40, 4-[(1E,Z)-3-({1-[3-Chloro-5-(trifluoromethyl)phenyl]-2,2,2-trifluoroethyl}amino)-3-oxoprop-1-en-1-yl]-N-cyclopropyl-2-(trifluoromethyl)benzamide], for which the “efficacy in % (fertile eggs laid)” value in the data set on Boophilus microplus [1] is 100%. The chromatographic logP in data set [2] (setting [10]) amounted to 3.68. Moreover, the pest or weed control at 0.02 mg in the data set with Boophilus microplus [3] came to 100%. Also, the “kill rate in % (efficacy)” value with Lucilia cuprina larvae came out at 90%; in the data set on Musca domestica adults it was 85%; with Ctenocephalides felis it was 100%.

`O=C(/C=C/c1ccc(C(=O)NCC(F)(F)F)c(Br)c1)NC(c1cccc(C(F)(F)F)c1)C(F)(F)F` (stereo not shown) [Ia-45]: the “efficacy in % (fertile eggs laid)” value in the data set on Boophilus microplus [1] and in the data set with Boophilus microplus [3] was 100% throughout. Also, the logP entry in [2] (HPLC-MS) is “HPLC-MS: logP = 3.60; mass”. The “kill rate in % (efficacy)” value with Lucilia cuprina larvae came out at 100%; in the data set on Musca domestica adults, 100%; in the data set with Ctenocephalides felis, 98%.

With `CN(C(=O)c1ccc(/C=C/C(=O)NC(c2cccc(C(F)(F)F)c2)C(F)(F)F)cc1C(F)(F)F)C1CC1` (stereo not shown) [Ia-60], the “efficacy in % (fertile eggs laid)” value with Boophilus microplus [1] and in the data set on Boophilus microplus [3] was 100% in each case. The efficacy in % in data set [4] is given as 90%; in data set [5], 100%. Further, the logP result in data set [2] (HPLC-MS) is on record as “HPLC-MS: logP = 3.62; mass”. The “kill rate in % (efficacy)” value in the data set with Lucilia cuprina larvae is on record as 90%; with Musca domestica adults, 95%; with Ctenocephalides felis, 100%.

`O=C(/C=C/c1ccc(C(=O)NC2CSC2)c(C(F)(F)F)c1)NC(c1cccc(C(F)(F)F)c1)C(F)(F)F` (stereo not shown) [Ia-130, 4-[(1E)-3-oxo-3-({2,2,2-trifluoro-1-[3-(trifluoromethyl)phenyl]ethyl}-amino)prop-1-en-1-yl]-N-(thietan-3-yl)-2-(trifluoromethyl)benzamide] came in with an efficacy in % in [6] of 100%. This molecule also registered a chromatographic logP in data set [2] (HPLC-MS) of 3.62. Further, in the data set on Boophilus microplus [3], the pest or weed control at 0.02 mg amounted to 100%. For the same molecule, the pest or weed control at 100 g/ha in [7] was found to be 80%; in data set [8], 100%.

For the molecule `O=C(/C=C/c1ccc(C(=O)NC2CC2)c(C(F)(F)F)c1)NC(c1cc(F)cc(C(F)(F)F)c1)C(F)(F)F` (stereo not drawn) [Ia-229, N-[α,3-Bis(trifluoromethyl)-5-fluorobenzenemethane]-3-trifluoromethyl-4-(N-cyclopropylcarbamoyl)cinnamide], in [2] (setting [10]), the chromatographic logP turned out to be 3.59. The pest or weed control at 500 g/ha in [7], in data set [8] and in data set [9] was 100% each time.

On to `CC(C)C(=O)NCc1ccc(/C=C/C(=O)NC(c2cccc(C(F)(F)F)c2)C(F)(F)F)cc1C(F)(F)F` (stereo not shown) [Ia-266, (2E)-3-{4-[(Isobutyrylamino)methyl]-3-(trifluoromethyl)phenyl}-N-{2,2,2-trifluoro-1-[3-(trifluoromethyl)phenyl]ethyl}acrylamide], for which the chromatographic logP in data set [2] (setting [10]) worked out at 3.78. The pest or weed control at 100 g/ha in data set [7] was 90%; in [8] it was 100%; in data set [9], 100%.

For `O=C(NC(c1cccc(C(F)(F)F)c1)C(F)(F)F)c1cc2cc(C(=O)NC3CC3)c(Cl)cc2[nH]1` (stereo not shown) [Ic-24, 6-Chloro-N^5-cyclopropyl-N^2-{2,2,2-trifluoro-1-[3-(trifluoromethyl)phenyl]ethyl}-1H-indole-2,5-dicarboxamide], in data set [2] (setting [10]), the chromatographic logP turned out to be 3.08. In the data set on Boophilus microplus [3], the pest or weed control at 0.02 mg is 100%. In addition, the pest or weed control at 500 g/ha in [7], in [8] and in [9] was 100% each time. In data set [5], this molecule displayed an efficacy in % of 100%.

Regarding `C=CCNC(=O)c1cc2cc(C(=O)NC(c3cccc(C(F)(F)F)c3)C(F)(F)F)n(C)c2cc1Cl` (stereo not shown) [Ic-32, N^5-Allyl-6-chloro-1-methyl-N^2-{2,2,2-trifluoro-1-[3-(trifluoromethyl)phenyl]ethyl}-1H-indole-2,5-dicarboxamide], the chromatographic logP in [2] (setting [10]) came to 3.68. Also, the pest or weed control at 500 g/ha in data set [7], in [8] and in data set [9] was 100% in each case.

With `CC(=O)NC1CCc2cc(/C=C/C(=O)NC(c3cccc(C(F)(F)F)c3)C(F)(F)F)ccc21` (stereo not shown) [Ie-1, (2E)-3-(1-Acetamido-2,3-dihydro-1H-inden-5-yl)-N-{2,2,2-trifluoro-1-[3-(trifluoromethyl)-phenyl]ethyl}acrylamide], the chromatographic logP in [2] (setting [10]) is 3. In addition, the pest or weed control at 100 g/ha was determined as 90% in data set [7], 100% in [8] and 100% in data set [9].

The molecule `O=C(/C=C/c1cc(C(F)(F)F)c(C(=O)NC2CC2)cn1)NC(c1cccc(C(F)(F)F)c1)C(F)(F)F` (stereo not shown) [If-2, N-Cyclopropyl-6-[(1E)-3-oxo-3-({2,2,2-trifluoro-1-[3-(trifluoromethyl)phenyl]ethyl}amino)-prop-1-en-1-yl]-4-(trifluoromethyl)nicotinamide] came in with an efficacy in % in [6] of 100%. The same molecule displayed a chromatographic logP in [2] (setting [10]) of 3.27. Besides, the pest or weed control at 100 g/ha in [7] amounted to 100%; in [8] it was 100%; in data set [9], 83%.

Turning to `O=C(/C=C\c1ccc(C(=O)NC2CC2)c(Cl)c1)NC(c1cccc(C(F)(F)F)c1)C(F)(F)F` (stereo not shown) [Ig-1, 2-Chloro-N-cyclopropyl-4-[(1Z)-3-oxo-3-({2,2,2-trifluoro-1-[3-(trifluoromethyl)phenyl]ethyl}-amino)prop-1-en-1-yl]benzamide], the chromatographic logP in [2] (setting [10]) was found to be 3.06. In addition, the pest or weed control at 100 g/ha was found to be 80% in data set [7] and 100% in data set [8].
